{
  "source": "patent EP0007319A1",
  "about": "“Indan-1-carboxylic acid derivatives,process for their preparation and pharmaceutical preparations containing these compounds” (priority 1978, dated 1980)",
  "key": {"Adjuvans-Arthritis": {"tested_on": "Adjuvans-Arthritis", "assay": "Adjuvant arthritis test (antiphlogistic activity)", "assay_type": "in vivo, Ratten des Stammes Lewis (LEW)", "conditions": "Rattus norvegicus; dose giving 40 % healing of right hind paw; M. butyricum adjuvant; oral, daily over 4 days from day 11; Lewis rats; read-out: Adjuvans-Arthritis Test in mg/kg Tier (ED40)", "text": "Die antiphlogistische Wirksamkeit der eriindungsgemäßen Substanzen kann mit Hilfe des bekannten Adjuvans-Arthritis-Testes ermittelt werden, der wie folgt durchgeführt wird:\nEs werden weibliche und männliche Ratten des Stammes Lewis (LEW) in der Gewichtsspanne zwischen 110 - 190 g verwendet. Die Tiere erhalten Trinkwasser und Altromin-Preßfutter ad libitum.\nFür jede Dosisgruppe werden 10 Ratten eingesetzt .\nMycobacterium butyricum der Firma Difko, Detroit, wird als Reizmittel verwandt. Eine Suspension von 0,5 mg M. butyricum in 0,1 ml dünnflüssigem Paraffin. (DAB 7) wird in die rechte Hinterpfote subplantar injiziert.\nDie Testsubstanzen werden vom 11. Versuchstag an täglich über 4 Tage oral gegeben. Die Substanzen werden als klare wässrige Lösung oder als Kristallsuspension unter Zusatz von Myrj 53 (85 mg.%) in isotonischer Natriumchlorid-Lösung verabreicht.\nDie Ratten werden in bezug auf ihr Köpergewicht möglichst gleichmäßig in verschiedene Gruppen eingeteilt. Nach plethysmographischej Volumenmessung der rechten Hinterpfote wird in diese subplantar 0,1 ml Adjuvans injiziert. Die rechten Hinterpfoten werden vom 14. Versuchstag bis zum Versuchsende gemessen. Die Versuchsdauer beträgt 3 Wochen.\nBestimmt wird die Dosis an Testsubstanz, bei der eine 40 %ige Abheilung beobachtet wird (=ED40)."}, "Magen": {"tested_on": "Magen", "assay": "Ulcer test (gastric ulceration)", "assay_type": "in vivo, Wistar-Eatten (SPF)", "text": "Eine häufige Komplikation bei der Therapie mit nichtsteroidalen Entzündungshemmern stellt das Auftreten von Magenulcerationen dar. Diese Nebenwirkung kann im Tierversuch nachgewiesen werden, wobei als Dosis die Menge Testsubstanz verwendet wird, bei der im Adjuvans-Arthritis Test eine 40 %ige Abheilung beobachtet wird. Der Ulkus-Test wird wie folgt durchgeführt.\nEs werden männliche Wistar-Eatten (SPF) verwandt. Die Tiere liege in einer Gewichtsspanne von 130 + 10 g. 16 Stunden vor Versuchsbeginn werden die Tiere vom Futter abgesetzt; sie erhalten Wasser ad libitum.\nPro Dosis werden 5 Tiere eingesetzt. Die Substanzen werden einmal oral, in Natriumelorid gelöst' oder als Kristallsuspension unter Zusatz von 85 mg% Myrj 53_appliziert.\n3 Stunden nach Substanzapplikation injiziert man 1 ml einer 3 %igen Lösung des Farbstoffs Diphenylreinblau intravenös und tötet das Tier. Der Magen wird reseziert und mikroskopisch auf Anzahl von Epithclläsionen und Ulcera, die durch Farbstoffanreichcrunsen hervortreten, untersucht."}, "[1]": {"conditions": "single oral dose equal to the ED40 of the adjuvant arthritis test, male Wistar rats, fasted 16 h, stomach examined 3 h after application"}},
  "data": [
    {"smiles": "CC(C)Cc1ccc(C(C)C(=O)O)cc1", "note": "(stereo not drawn) [Verbindung 1]", "values": [
      {"measurement": "ED40", "setting": "Adjuvans-Arthritis", "value": 100, "unit": "mg/kg"},
      {"measurement": "Anzahl der Magenulzera bei gleicher Dosis", "setting": "Magen; rat, in vivo, po", "value": "6,8"}
    ]},
    {"smiles": "CC(C(=O)O)c1ccc(C2CCCCC2)cc1", "note": "(stereo not drawn) [Verbindung 2, 2-(4-Cyclohexyl-phenyl)-propionsäure]", "values": [
      {"measurement": "ED40", "setting": "Adjuvans-Arthritis", "value": 40, "unit": "mg/kg"},
      {"measurement": "Anzahl der Magenulzera bei gleicher Dosis", "setting": "Magen; rat, in vivo, po", "value": "7,6"}
    ]},
    {"smiles": "O=C(O)C1CCc2cc(C3CCCCC3)ccc21", "note": "(stereo not drawn) [Verbindung 3, 5-Cyclohexyl-indan-1-carbonsäure]", "values": [
      {"measurement": "ED40", "setting": "Adjuvans-Arthritis", "value": 50, "unit": "mg/kg"},
      {"measurement": "Anzahl der Magenulzera bei gleicher Dosis", "setting": "Magen; rat, in vivo, po", "value": "8,3"}
    ]},
    {"smiles": "O=C(O)C1CCc2cc(C3CCCCC3)c(Cl)cc21", "note": "(stereo not drawn) [Verbindung 4, 6-Chlor-5-cyclohexyl-indan-1-carbonsäure]", "values": [
      {"measurement": "ED40", "setting": "Adjuvans-Arthritis", "value": 4, "unit": "mg/kg"},
      {"measurement": "Anzahl der Magenulzera bei gleicher Dosis", "setting": "Magen; rat, in vivo, po", "value": "7,8"}
    ]},
    {"smiles": "CC(C(=O)O)c1ccc(CC2CC2)cc1", "note": "(stereo not drawn) [Verbindung 5, 2-(4-Cyclopropylmethyl-phenyl)-propionsäure]", "values": [
      {"measurement": "ED40", "setting": "Adjuvans-Arthritis", "value": 90, "unit": "mg/kg"},
      {"measurement": "Anzahl der Magenulzera bei gleicher Dosis", "setting": "Magen; [1]", "value": "5,4"}
    ]},
    {"smiles": "CC(C(=O)O)c1ccc(CC2CCCC2)cc1", "note": "(stereo not drawn) [Verbindung 6, 2-(4-Cyclopentylmethyl-phenyl)-propionsäure]", "values": [
      {"measurement": "ED40", "setting": "Adjuvans-Arthritis", "value": 10, "unit": "mg/kg"},
      {"measurement": "Anzahl der Magenulzera bei gleicher Dosis", "setting": "Magen; [1]", "value": "0,6"}
    ]},
    {"smiles": "CC(C(=O)O)c1ccc(CC2CCCC2)c(Cl)c1", "note": "(stereo not drawn) [Verbindung 7, 2-(3-Chlor-4-cyclopentyl-methyl-phenyl)-propionsäure]", "values": [
      {"measurement": "ED40", "setting": "Adjuvans-Arthritis", "value": 3, "unit": "mg/kg"},
      {"measurement": "Anzahl der Magenulzera bei gleicher Dosis", "setting": "Magen; [1]", "value": "0,6"}
    ]},
    {"smiles": "O=C(O)C1CCc2cc(CC3CCCC3)c(Cl)cc21", "note": "(stereo not drawn) [Verbindung 8, 6-Chlor-5-cyclopentyl-methyl-indan-1-carbonsäure]", "values": [
      {"measurement": "ED40", "setting": "Adjuvans-Arthritis", "value": 30, "unit": "mg/kg"},
      {"measurement": "Anzahl der Magenulzera bei gleicher Dosis", "setting": "Magen; [1]", "value": "2,2"}
    ]},
    {"smiles": "O=C(O)C1CCc2cc(C=C3CCCC3)c(Cl)cc21", "note": "(stereo not drawn) [Verbindung 9, 6-Chlor-5-cyclopentyliden-methyl-indan-1-carbon-säure]", "values": [
      {"measurement": "ED40", "setting": "Adjuvans-Arthritis", "value": 40, "unit": "mg/kg"},
      {"measurement": "Anzahl der Magenulzera bei gleicher Dosis", "setting": "Magen; [1]", "value": "0,7"}
    ]}
  ]
}
